Like-named read-outs stand apart in the source and are kept apart here.
What was measured:
[1] = test system: hiPSC-CM derived cardiac tissue (WTC CMs) in the cardiac MPS; assay: Cardiac MPS beat rate (motion tracking) drug response; type: cell-based, human; conditions: for effect on beats per minute (BPM): dose response
Description: A cardiac MPS that incorporates an in vitro 3D model of the human myocardium consisting of aligned CMs derived from hiPS cells was designed, fabricated and characterized with various in and ex situ monitoring tools. […] To characterize the functionality of the cardiac model, a motion tracking method capable of massive parallelization and high throughput analysis based on bright field microscopy as well as a custom made MEA enabling electrophysiological measurements inside the MPS was developed.
As an alternative to MEAs, a computational motion tracking method capable of performing high throughput analysis was developed. The computational motion tracking method analyzed the beating motion of cardiac tissue based on simple bright field movies (FIGS. 6A-C).
Drugs from classes that target a different physiological effect (i.e. ion channel, stimulant) were chosen, and the IC50 or EC50 values were determined.

adult human slice = adult human slice contractility; read-out: EC50 for the effect on adult human slice contractility; cited from earlier work
[2] = test system: LQT3 hiPSC-CM derived cardiac tissue in the MPS; assay: LQT3 cardiac tissue in the MPS, beat frequency response; type: cell-based, human
Protocol: When fed continuously the tissue remained viable and functional for more than one month. Healthy and LQTS hiPSC-CM-derived cardiac tissue in the MPS were viable and amenable to continuous monitoring (e.g., MEA) and sampling for over 4 weeks. Beating tissues were created and loaded from multiple iPS cell lines, a disease cell line (LQT3), and the GCaMP6 isogenic reporter cell line.
FIG. 7. […] (B) Time dependent effect of 1 μM Isoproterenol (ISO) on bpm. * p<0.05 vs baseline.

COc1ccc(CCN(C)CCCC(C#N)(c2ccc(OC)c(OC)c2)C(C)C)cc1OC (stereo not drawn) [Verapamil]
IC50 ([1]; Homo sapiens, read-out: IC50, dose dependent decrease of beat rate / beats per minute): 950 nM
spontaneous beating ([1]; at high doses): abolished spontaneous beating
effect on beats per minute (BPM) ([1]; cardiac MPS): dose-dependent decrease
beat rate ([1]; exposure to 1 nM, multiple exposures on the same device): decreased the beat rate

Cc1cccc(CCN2CCC(C(=O)c3ccc(NS(C)(=O)=O)cc3)CC2)n1 [E-4031]
IC50 ([1]; cardiac MPS, beat rate, read-out: IC50, dose dependent decrease of beat rate / beats per minute): 392 nM

COCCc1ccc(OCC(O)CNC(C)C)cc1 (stereo not drawn) [Metoprolol]
IC50 ([1]; Homo sapiens, cardiac MPS, beat rate, read-out: IC50, dose dependent decrease of beat rate): 244000 nM

CC(C)NCC(O)c1ccc(O)c(O)c1 (stereo not drawn) [Isoproterenol]
EC50 (adult human slice): 100 to 200 nM
EC50 ([1]; Homo sapiens, cardiac MPS, beat rate, read-out: EC50, concentration dependent increase on absolute beating (beats per minute)): 315 nM
effect on beats per minute (BPM) ([1]; cardiac MPS): dose-dependent increase
beat rate ([1]; subsequent exposure to 1 μM, same device, after at least 48 hours wash): increased the beat rate
beat frequency ([2]; 100 nM concentration): no effect
beat frequency ([2]; 10 min exposure to 1 μM): approximately doubled
